Entries after “also recorded” stand apart in the source; their conditions may differ.
How the values were obtained:
[1] = test system: BM hematopoietic stem and progenitor cells; assay: Hematopoietic regeneration in C57B16 mice after 700 cGy TBI (progenitor assays, competitive repopulation); format: in vivo, mouse
Experimental: BM cells were collected into PBS (Cellgro, Manassas, Va.) with 10% fetal bovine serum (Hyclone, Logan, Utah) and 1% penicillin/streptomycin (GIBCO, Grand Island, N.Y.). Viable BM cells were quantified using Trypan Blue Stain (Lonza, Basel, Switzerland) to exclude apoptotic and dead cells. Cells were then incubated with anti-c-kit, anti-Sca-1, anti-lineage cocktail, anti-CD41, anti-CD48, and anti-CD150 antibodies (Biolegend and eBiosciences, San Diego, Calif.; BD, San Jose, Calif.) to measure ckit^+sca-1^+lin^− (KSL) progenitor cells or CD150′CD41^−CD48^−KSL (SLAM/KSL) as previously described (Kiel et al, Cell 121:1109-1121 (2005)). Colony forming cells (CFCs) and CFU-S12 assays were also performed to measure functional hematopoietic stem/progenitor cell content. For CFCs, either whole BM or cultured lineage−cells, or KSL cells were plated onto methylcellulose (StemCell Technologies, Vancouver, BC, Canada), and colonies were scored on day 14. 1×10^5 BM or 2×10^5 cells were collected from donor mice and injected via tail vein into recipient C57B16 mice that had been given 950 cGy TBI. At day +12 post-injection, spleens from recipient mice were harvested and stained with Bouin's fixative solution (Ricca Chemical Company, Arlington, Tex.), and colonies were counted as previously described (Till and MeRadiat. Res. 14:213-222 (1961)). Complete blood counts were performed on a HemaVet 950 (Drew Scientific, Dallas, Tex.).
Competitive repopulation assays were also performed using donor C57B16 mice (CD45.2^+) that had been irradiated with 700 cGy TBI and gavaged daily with 10 μg/G erlotinib (Genentech, San Francisco, Calif.) or 150 μl water beginning on day 0 and continued through day +14. Donor BM cells were injected via tail vein into recipient B6.SJL mice (CD45.1^+) at a dose of 5×10^5 cells with a competing dose of host 1×10^5 BM MNCs. Tie2Cre;Bak1^−/−;Bax^FL/− mice were gavaged daily with 10 μg/G erlotinib or water starting day −3 and given 300 cGy TBI on day 0. Erlotinib administration continued until the timepoint of donor BM cell collection and analysis. Tie2Cre;Bak1^−/−;Bax^FL/− BM cells were injected via tail vein into recipient CD45.1^+ mice at a cell dose of 3×10^5 cells with a competing dose of host 1×10^5 CD45.1^+ cells. Multilineage hematopoietic reconstitution was measured in the PB of recipient mice by flow cytometry at 4, 8, and 12 weeks post-transplant. For survival studies with erlotinib administration, C57B16 mice were exposed to 700 cGy and then given 10 μg/G erlotinib or water starting day −3 and continuing daily through day +14.
Ten micrometer sections were cut using they CryoJane tape system (Instrumedics Inc, Hackensack, N.J., USA). Femurs were stained with hematoxylin and eosin or anti-mouse endothelial cell antibody (MECA-32) as previously described (Salter et al, Blood 113:2104-2107 (2009)) to assess BM cellularity and the BM vasculature after irradiation. Images were obtained using an Axiovert 200 microscope (Carl Zeiss Microscopy, Thornwood, N.Y.) or a Leica SP5 confocal microscope (Leica Microsystems Inc, Buffalo Grove, Ill.). Adobe Photoshop software (version 9.0.2, Adobe Systems, San JoSe, Calif.) was used to quantify positive signal as a measure of spatial distribution in the fields (Lehr et al, J. Histochem. Cytochem. 45:1559-1565 (1997), Lehr et al, J. Histochem. Cytochem. 47:119-126 (1999)).

[2] = test system: BM KSL cells; assay: Annexin V apoptosis assay of irradiated BM KSL cells in culture; format: cell-based, mouse; conditions: 72 hours, vs cytokines alone
Experimental: (§1) Cell apoptosis and necrosis were analyzed by flow cytometry according to manufacturer's protocols with Annexin V-FITC and 7-AAD staining (BD, San Jose, Calif.). […] Cells were fixed and permeabilized with Fix Buffer I and Perm Buffer III (BD), and then stained with mouse anti-phospho-AKT-S473 PE (BD) or isotype control. Cell cycle analysis was performed by flow cytometric analysis modified from previous reports (Jordan et al, Exp. Hematol. 24:1347-1355 (1996), Chute et al, Hum. Gene Ther. 11:2515-2528 (2000), Sungartz et al, Blood 119:1308-1309 (2012)). Briefly, cells were fixed and permeabilized with 0.25% Saponin (Calbiochem, La Jolla, Calif.), 2.5% paraformaldehyde, 2% FBS in 1×PBS, and then labeled with Ki67-FITC and 7-AAD (BD). BM lin^− cells from VavCre;EGFR^+/+ or VavCre;EGER^fl/fl were cultured with TSF or TSF+10 μM erlotinib, or TSF following 300 cGy for 72 hours, and then collected for total cell counts and CFCs analysis.

[3] = test system: CD45+MECA- BM cells; assay: Annexin+ BM hematopoietic cells in mice after 700 cGy TBI; format: in vivo, mouse; conditions: systemic EGF x 7 days, day +7, vs saline
Experimental: FIGS. 7A-7G. […] (FIG. 7B) Mean percentage of Annexin^+ Tie2Cre;Bak1^−/−;Bax^Fl/−. […] Non-irradiated BM KSL cells reside predominantly in the G0 (white). G1 light gray, G2/S/M=dark gray. *P=0.002 vs TSF for G0 and ̂P=0.002 vs TSF for G2/S/M, respectively (means±SEM, n=3-5/group). […] The majority of non-irradiated cells were in G0 (white). […] The Mann-Whitney test was utilized for all comparisons unless otherwise noted.
as §1

[4] = test system: BM KSL cells; assay: BrdU incorporation in BM KSL cells in vivo after 700 cGy TBI; set-up: species or system mouse; conditions: day +7 following 700 cGy TBI, EGF daily x 7 days, vs saline
Experimental: Cell proliferation was measured in C57B16 mice exposed to 700 cGy TBI and administered 5-bromo-2-deoxyridine (BrdU, BD) in drinking water from the day of irradiation until day +7. BM cells were labeled with anti-cKit PE, anti-scal PE-Cy7, anti-lineage APC, and anti-BrdU FITC. Incorporation of BrdU was analyzed by flow cytometry according to the manufacturer's staining protocol (BD).

[5] = test system: AKT-S473; assay: Phosphorylation of AKT-S473 in irradiated BM KSL cells; format: cell-based, mouse; conditions: EGF treatment of irradiated BM KSL cells in culture, within 15 minutes, vs TSF alone
Experimental: as §1

[6] = test system: C57B16 mice; assay: Survival of C57B16 mice after 700 cGy TBI; format: in vivo, mouse; conditions: 0.5 ug/G EGF daily x 7 days from +2 hours, saline controls 57%
[7] = 700 cGy TBI, EGF 0.5 ug/G IP daily x 7 days, day +7

EGF: epidermal growth factor; recombinant EGF (R&D Systems)
increased BM KSL progenitor cells vs saline [1, 7]: 6 fold
increased BM cells vs saline [1, 7]: 2 fold
increased CFCs vs saline [1, 7]: 7 fold
increased CFU-S12 vs saline [1, 7]: 8 fold
BM cellularity ([1]; 700 cGy TBI, EGF daily x 7 days, day +7): preserved BM cellularity; also recorded: largely preserved
BM HSC content by competitive repopulation assay ([1]; 700 cGy TBI, EGF x 7 days, BM at day +7, vs saline): significantly increased
multilineage reconstitution of myeloid cells, B cells and T cells in recipients ([1]; BM from irradiated EGF-treated mice, 12 weeks post-transplant, vs saline): increased multilineage reconstitution
repopulating cell content (donor stem cell engraftment in recipients) ([1]; Example 1, BM at day +7 or day +14 following 700 cGy TBI, EGF vs saline): significantly higher repopulating cell content
recovery of bone marrow stem and progenitor cells ([1]; Example 1, recombinant EGF via intraperitoneal injection into irradiated wild type mice, vs controls): marked acceleration
engraftment in secondary transplant recipients at 12 weeks ([1]; donor BM collected at day +7 following TBI, data not shown): no significant engraftment
donor cell repopulation in secondary transplant recipients at 12 weeks ([1]; donor BM collected at day +14 following TBI from EGF-treated mice, vs saline): significantly increased; also recorded: markedly increased donor cell repopulation
decreased Annexin+ KSL cells ([2]; C57B16 BM KSL, 300 cGy, cytokines plus 20 ng/ml EGF): 2 fold
percentage of Annexin+ cells ([2]; irradiated BM KSL cells from Tie2Cre;Bak1-/-;BaxFl/- mice, EGF): further decreased
decreased Annexin+ BM hematopoietic cells [3]: 4 fold
BrdU incorporation in BM KSL cells [4]: significantly increased; also recorded: marked increase
increase in Akt phosphorylation [5]: 50%
mice alive and well through day +30 [6]: 93%

Source: patent US20130331326A1, “METHOD OF INDUCING HEMATOPOIETIC RECONSTRUCTION” (DUKE UNIVERSITY, priority 2011, published 2013)
